Test results from US20120283175A1, “ANTIBACTERIAL COMPOSITIONS” (Achaogen, Inc., priority 2009, published 2012).
In brackets after ≈: the same amount, converted by molar mass. Several values for one entry are separate records, joined by “and”; a condition that tells them apart may be missing. Equal entries are not always repeated. Where two headings read alike, the source gives them in different places.

How the values were obtained:
K. pneumo. (ATCC43816) = test: Neutropenic thigh in vivo efficacy model (mice); design: species or system Klebsiella pneumoniae; Static Dose, LpxC cmpd / Static Dose, LpxC in combination: unit not given here; conditions: for Static Dose, LpxC cmpd: LpxC compound alone; for Static Dose, LpxC in combination: combination agent Vanco (440 mg/kg/day)
Source text: (§1) The model was run essentially as described by Craig and others (see Gudmundsson et al., “Murine Thigh Infection Model,” Handbook of Animal Models of Infection, M. A. Sande and O. Zak, Eds.; London: Academic Press, 1999, pp 137-144). Briefly, mice were rendered neutropenic prior to infection with 2 doses of cyclophosphamide, and then infected intramuscularly in the thigh with inocula of 10^3-10^5 CFU of either K. pneumo. (ATCC43816) or P. aeruginosa (ATCC27853). Antibiotics or vehicle alone as a negative control were administered twice at 2 hrs and 14 hrs post-infection. The animals were kept neutropenic for the duration of the experiment in order to minimize the effect of white blood cells on the infection such that the microbiological readout measures the in vivo interaction of drugs and bacteria. At 24 hrs post-infection, thighs were harvested, homogenized, and plated to measure the number of CFUs surviving per thigh. Thighs from a subset of animals were also harvested 2 hrs post-infection to record the CFUs present just prior to the first antibiotic treatment (pre-treatment).

[1] = test system: P. aeruginosa (ATCC27853)
Source text: as §1
This table focuses on the sensitive part of the LpxCi-4 dose response curve (30 mg/kg) by examining the mean log CFU at 0 or 24 hours, as well as the log change in CFU at 24 hours relative to zero hours (“ΔLogCFU vs […]”). Data is given for animals treated with vehicle, LpxCi-4 at 30 mg/kg, a second agent alone at the indicated doses or the combination of LpxCi-4 at 30 mg/kg plus the second agent at the indicated dose. The standard errors for each measurement are also given (n=5 animals/group). By comparing the observed drop in CFU of the combination with the sum of the drop in CFU associated with each of the two agents given separately, one can determine whether the combination is, in fact, synergistic in vivo.

[2] = test system: Klebsiella pneumoniae (ATCC 43816); assay type: in vivo; conditions: for Mean CFU/g thigh muscle (SEM): normal plates; for Mean CFU/g thigh muscle (SEM) / CFU/Drug Plate - Dilution 10^0 / CFU/Drug Plate - Dilution 10^−1: Vancomycin 25 mg/kg, LpxC-i 35 mg/kg; for CFU/Drug Plate - Dilution 10^0 / CFU/Drug Plate - Dilution 10^−1: per animal N 1-5; on CFU/Drug Plate - Dilution 10^0: key: +: Too many colonies to permit accurate counting
Description: Vancomycin and LpxCi-5 were dissolved in 30% HPβCD (2-hydroxypropyl-β-cyclodextrin). Test substances were each administered subcutaneously (SC) singly or in combination to test animals at 2 hours and 14 hours after bacterial inoculation then bid daily for a total of 1, 2, 3 or 7 day(s). The dosing volume was 5 mL/kg.
Groups of 5 or 10 male specific-pathogen-free CD-1 (Crl.) mice weighing 24±2 g were used. Animals were immunosuppressed by two or three intraperitoneal injections of cyclophosphamide, the first at 150 mg/kg 4 days before infection (day −4) and the second or third at 100 mg/kg 1 day before or 3 days after infection (day −1 or +3). On day 0, animals were inoculated intramuscularly (0.1 mL/thigh) into the right thigh with a specific number (1.35×10^7 CFU/mouse) of Klebsiella pneumoniae (ATCC 43816). Vehicle and test substances (singly or in combination) were each administered subcutaneously 2 hours and 14 hours after inoculation then bid for a total of 1, 2, 3 or 7 consecutive day(s). Groups at 24, 48, 72 hours and day 8 hours after treatment as the designated time of harvest, muscle of the right thigh was harvested from each of the survival test animals. An additional group with no treatment, at 2 hours after inoculation, the muscle of the right thigh was harvested and viable CFU on agar plates with or without drug were quantified by standard methods. Animals in groups designated for Day 8 harvest are 10 mice and daily tally of survivors were kept until harvest and recorded. A non-infected group was just treated with LpxCi-5 and kept out to Day 8 and then harvested. The removed muscle tissues were then homogenized in 3˜4 mL of PBS, pH 7.4, with a ceramic mortar. Homogenates of 0.1 mL were used for serial 10-fold dilutions and plated on Muller-Hinton Broth in 1.5% Bacto agar and plated in parallel with drug plates for CFU determination. The original inoculum was adjusted to 2×10^8 CFU/0.1 mL and then plated onto the 3 different drug plates of LpxCi-5 for CFU count.
The immunity of animals treated with vehicle or vancomycin alone was suppressed by two intraperitoneal injections of cyclophosphamide, the first was at 150 mg/kg 4 days before infection (day −4) and the second was at 100 mg/kg 1 day before infection (day −1). On day 0, test compound and vehicle were each administered subcutaneously at 2 and 14 hrs after animals were inoculated intramuscularly (0.1 mL/thigh) with 1.35×10^7 CFU/mouse of Klebsiella pneumoniae (ATCC 43816).
(§2) The immunity of animals treated with LpxCi-5 alone was suppressed by two or three intraperitoneal injections of cyclophosphamide, the first was at 150 mg/kg 4 days before infection (day −4); the second and the third was at 100 mg/kg 1 day before and three days after infection (day −1 and day +3). On day 0, test compound were each administered subcutaneously bid at 2 and 14 hrs after animals were inoculated intramuscularly (0.1 mL/thigh) with 1.35×10^7 CFU/mouse of Klebsiella pneumoniae (ATCC 43816) for one, two, three or seven consecutive days. At 24, 48, 72 hours or at day 8 after treatment, muscle of the right thigh was harvested from each of the test animals for CFU determination in normal and drug plates.
as §2, with “both vancomycin and the LpxC inhibitor, LpxCi-5,” for “LpxCi-5 alone”, “compounds in combination” for “compound”, “days.” for “days. At 24, 48, 72 hours or at day 8 after treatment, muscle of the right thigh was harvested from each of the test animals for CFU determination in normal and drug plates.”

envA1 (D22) E. coli = test: MIC by broth microdilution, isogenic envA1 mutant strain; assay type: cell-based; conditions: Strain envA1 (D21)
Description: Bacterial isolates were cultivated from −70° C. frozen stocks of the indicated strains by overnight passages at 35° C. in ambient air on Mueller-Hinton agar (Beckton Dickinson, Franklin Lakes, N.J.). Minimum Inhibitory Concentrations (MICs) were determined by the broth microdilution method in accordance with the Clinical and Laboratory Standards Institute (CLSI) guidelines. In brief, organism suspensions were adjusted to a 0.5 McFarland standard to yield a final inoculum between 3×10^5 and 7×10^5 colony-forming units (CFU)/mL. Drug dilutions and inocula were made in sterile, cation adjusted Mueller-Hinton Broth (Beckton Dickinson). An inoculum volume of 100 μL was added to wells containing 100 μL of broth with 2-fold serial dilutions of drug. All inoculated microdilution trays were incubated in ambient air at 35° C. for 18-24 hours. Following incubation, the lowest concentration of the drug that prevented visible growth (OD600 nm <0.05) was recorded as the MIC.

[3] = strain 27853, combination agent Vanco

SMILES: CC(C)(O)[C@H](NC(=O)c1ccc(C#CC#CC2CC2)cc1)C(=O)NO [LpxCi-6, (S)-4-(cyclopropylbuta-1,3-diynyl)-N-(3-hydroxy-1-(hydroxyamino)-3-methyl-1-oxobutan-2-yl)benzamide]
- Static Dose, LpxC cmpd (K. pneumo. (ATCC43816); strain 43816): 240
- Fold Shift Static Dose (K. pneumo. (ATCC43816); strain 43816, combination agent Vanco): 3x
- Static Dose, LpxC in combination (K. pneumo. (ATCC43816); strain 43816): 80
- in vivo synergy with vancomycin ([1]; bacterial strain ATCC27853): in vivo synergy
- Static Dose, LpxC cmpd ([1]; strain 27853, LpxC compound alone): 269
- Fold Shift Static Dose [1, 3]: 1.8x
- Static Dose, LpxC in combination [1, 3]: 151

SMILES: CC(C)(N)[C@H](NC(=O)c1ccc(C#C/C=C/C2CC2)cc1)C(=O)NO [LpxCi-5, (S,E)-N-(3-amino-1-(hydroxyamino)-3-methyl-1-oxobutan-2-yl)-4-(4-cyclopropylbut-3-en-1-ynyl)benzamide]
- Mean CFU/g thigh muscle (SEM) ([2]; 24 hr, SC bid × 1): 3.81 × 10^7 CFU/g
- CFU/Drug Plate - Dilution 10^0 ([2]; 24 hr, SC bid × 1): +
- CFU/Drug Plate - Dilution 10^−1 ([2]; 24 hr, SC bid × 1): 780 CFU/Drug Plate and + (4×)
- Mean CFU/g thigh muscle (SEM) ([2]; 48 hr, SC bid × 2): 3.80 × 10^8 CFU/g
- CFU/Drug Plate - Dilution 10^0 ([2]; 48 hr, SC bid × 2): +
- CFU/Drug Plate - Dilution 10^−1 ([2]; 48 hr, SC bid × 2): +
- Mean CFU/g thigh muscle (SEM) ([2]; 72 hr, SC bid × 3): 1.48 × 10^9 CFU/g
- CFU/Drug Plate - Dilution 10^0 ([2]; 72 hr, SC bid × 3): +
- CFU/Drug Plate - Dilution 10^−1 ([2]; 72 hr, SC bid × 3): +
- Mean CFU/g thigh muscle (SEM) ([2]; Day 8, SC bid × 7): all animals died
- protection of the animals ([2]; LpxCi-5 at 35 mg/kg bid (70 mg/kg/day)): provides protection to the animals out to 72 hours
- resistant CFU present at 24, 48 and 72 hours ([2]; LpxCi-5 at 35 mg/kg bid alone): > 10^3 CFU/thigh
- total burden of CFU by 72 hours ([2]; LpxCi-5 at 35 mg/kg bid alone): > 10^9 CFU/thigh
- in vivo synergy and suppression of emergence of resistant mutants ([2]; LpxCi-5 with Vancomycin): synergistic with Vancomycin in vivo
- survival to Day 8 ([2]; bid for seven consecutive days): All animals were dead by Day 8

SMILES: C[C@@H](O)[C@H](NC(=O)c1ccc(C#Cc2ccc(CN3CCOCC3)cc2)cc1)C(=O)NO [LpxCi-3, N-((2S,3R)-3-hydroxy-1-(hydroxyamino)-1-oxobutan-2-yl)-4-((4-(morpholinomethyl)phenyl)ethynyl)benzamide]
- in vivo synergy with vancomycin (K. pneumo. (ATCC43816); bacterial strain ATCC43816): in vivo synergy
- Static Dose, LpxC cmpd (K. pneumo. (ATCC43816); strain 43816): >1000
- Static Dose, LpxC in combination (K. pneumo. (ATCC43816); strain 43816): 107

SMILES: Cc1onc(-c2ccccc2)c1C(=O)N[C@@H]1C(=O)N2[C@@H]1SC(C)(C)[C@@H]2C(=O)O [Oxacillin, oxacillin]
- MIC (envA1 (D22) E. coli): 16 µg/mL (≈ 39.9 µM)
- ΔLogCFU vs 24 hr ([1]; 24 hr, second block of Table 5, mg/kg/day b.i.d.: 3936 30, Eryth. 60, Dapto. 3, Oxacil. 100): −0.35
- Log CFU Mean ([1]; 24 hr, second block of Table 5, mg/kg/day b.i.d.: 3936 30, Eryth. 60, Dapto. 3, Oxacil. 100, n=5): 7.29
- in vivo synergy with LpxC inhibitors ([1]; P. aeruginosa (ATCC27853), summary): modest but potentially useful in vivo synergy
